Laboratory results as given in patent US10653667B2, “Drug for preventing, treating or preventing metastasis of giant cell tumor that occurs in bone or soft parts, chondrosarcoma, or osteosarcoma, local injection for arterial embolization, and artificial bone” (NIPPON CHEMIPHAR CO., LTD, priority 2013, dated 2020).

How the values were obtained:
[1] = tested on: PPARγ expression in GCTB cultured cells; experiment: PPARγ immunostaining of GCTB cultured cells; type: cell-based, human; details: zaltoprofen 10, 50, 100, 200 μM; 24 hours; about 15% in the control
Description: The GCTB cultured cells of the aforementioned case 1 were cultured on chamber cover slide glass, and 24 hours thereafter, zaltoprofen was added at various concentrations (10, 50, 100, and 200 μM). After 24 hours, the cells were fixed with 4% paraformaldehyde, and immunohistochemical staining of PPARγ was performed. The PPARγ protein was fluorescently detected by using the antibody SC-7273 of Santa Cruz Biotechnology, Inc. as the primary antibody and the rat anti-mouse IgG FITC (11-4011-85) of eBioscience as the secondary antibody. Observation was performed with a fluorescence microscope (BZ-9000) of Keyence, and positive images for each concentration were quantitatively observed (FIGS. 6 and 7).

[2] = tested on: cultured cells of human pigmented villonodular synovitis (PVNS); experiment: Tunel assay and caspase 3 staining of PVNS cultured cells; type: cell-based; details: zaltoprofen 400 μM or troglitazone 200 μM, compared with control
Description: Further, the aforementioned GCTB cultured cells of the case 1 mentioned above were cultured on chamber cover slide glass, and zaltoprofen was added at different concentrations (100, and 200 μM) 24 hours afterward. Then, 8 hours and 24 hours afterward, the cells were fixed with 4% paraformaldehyde, staining with caspase 3 and Tunel assay were performed, and presence or absence of apoptosis was analyzed. In the Tunel assay, fragmented DNAs produced in the process of apoptosis were detected by the TdT-mediated dUTP nick end labeling method (TUNEL). Observation was performed with a fluorescence microscope (BZ-9000) of Keyence, and positive images for each concentration were quantitatively observed (FIGS. 2 to 5).
Further, in the same manner as that of Example 1, the cultured cells of human giant cell tumor of tendon sheath (GCTT) and the cultured cells of human pigmented villonodular synovitis (PVNS) were subjected to staining with caspase 3 and Tunel assay, and presence or absence of apoptosis was analyzed (FIGS. 18 to 25).

[3] = tested on: PPARγ expression in cells of giant cell tumor of tendon sheath (GCTT); experiment: PPARγ immunostaining of GCTT cells; type: cell-based, human; details: zaltoprofen 400 μM or troglitazone 200 μM
SW1353 cells = experiment: Suppression of cell proliferation of chondrosarcoma cell line SW1353 (CCK-8); type: cell-based, human; details: drug at various concentrations
Excerpt: The H-EMC-SS cells were obtained from the Riken BioResource Center. As the SW1353 cells, those obtained from ATCC were used.

[4] = tested on: PPARγ expression in GCTB cultured cells; details: GCTB derived from a patient; inventors' earlier reports; cited from earlier work
[5] = tested on: giant cell tumor of bone (GCTB); details: patient who had taken zaltoprofen for four weeks at 240 mg per day; inventors' earlier reports; cited from earlier work

CC(C(=O)O)c1ccc2c(c1)CC(=O)c1ccccc1S2 (stereo not shown) [zaltoprofen]
expression of PPARγ (ratio of PPARγ-positive cells) [1]: increased in a zaltoprofen concentration-dependent manner
Tunel-positive ratio [2]: increased
caspase 3-positive ratio [2]: increased
expression of PPARγ (PPARγ-positive images) [3]: expression of PPARγ was successfully observed
suppression of cell proliferation (absorbance at 450 nm) (SW1353 cells): suppressed proliferation
expression of PPARγ in the cells of giant cell tumor of bone [4]: promoted expression of PPARγ
giant cell tumor of bone in patient [5]: giant cell tumor of bone disappeared
